Test results from BindingDB's records for doi:10.1016/j.bioorg.2015.10.003 (University of Technology Sydney, 2015).
pIC50, pKi: −log10 of the molar value.

Biological target: Polyphenol oxidase 1 [N65D,S176D,K211T,P277A,P406L] (Agaricus bisporus var. bisporus (strain H97 / ATCC MYA-4626 / FGSC 10389), UniProt Q00024, K211T/N65D/P277A/P406L/S176D)
Test: Enzymatic Activity Assay
Settings: pH 6.8
Experimental: The mushroom tyrosinase inhibition activity of hydroxy naphthylchalcone compounds was measured using L-DOPA as substrate. The activity assay used 3 ml of reaction medium containing 0.5 mM L-DOPA in 50 mM Na2HPO4-NaH2PO4 buffer (pH 6.8). […] The substrate reaction progress curve was analyzed to obtain the reaction rate constants. The reaction was carried out at 30 °C and pH 6.8.

O=C(/C=C/c1cc(O)cc(O)c1)c1cc2ccccc2cc1O [(2E)-3-(3,5-dihydroxyphenyl)-1-(3-hydroxynaphthalen-2-yl)prop-2-en-1-one (5b)]
pIC50: 4.98
pKi: 5.42

O=C(/C=C/c1ccc([N+](=O)[O-])cc1O)c1cc2ccccc2cc1O [(2E)-1-(3-hydroxynaphthalen-2-yl)-3-(2-hydroxy-4-nitrophenyl) prop-2-en-1-one (3b)]
pIC50: 4.64
pKi: 4.95

O=C(/C=C/c1ccc(O)cc1O)c1cc2ccccc2cc1O [(2E)-3-(2,4-dihydroxyphenyl)-1-(3-hydroxynaphthalen-2-yl) prop-2-en-1-one (2b)]
pIC50: 4.84
pKi: 5.35

O=C(/C=C/c1cc(O)ccc1O)c1cc2ccccc2cc1O [(2E)-3-(2,5-dihydroxyphenyl)-1-(3-hydroxynaphthalen-2-yl) prop-2-en-1-one (1b)]
pIC50: 4.69
pKi: 4.97

O=C(/C=C/c1ccc(O)c([N+](=O)[O-])c1)c1cc2ccccc2cc1O [(2E)-1-(3-hydroxynaphthalen-2-yl)-3-(4-hydroxy-3-nitrophenyl) prop-2-en-1-one (4b)]
pIC50: 4.59
pKi: 4.92
